Measurements taken from patent US7576094B2, “Spiro derivatives as lipoxygenase inhibitors” (Eli Lilly and Company, priority 2004, dated 2009).

Legend:
[1] = target: T1, porcine leukocyte 12/15-Lipoxygenase (Sus scrofa, UniProt P16469); experiment: 12/15-Lipoxygenase Enzyme Assay; format: biochemical; details: 70 μM arachidonic acid, 10 minute incubation at room temperature, FOX reagent, absorbance at 620 nm; read-out: inhibition of 12/15-Lipoxygenase with an IC50
T1 sequence (P16469 1-663): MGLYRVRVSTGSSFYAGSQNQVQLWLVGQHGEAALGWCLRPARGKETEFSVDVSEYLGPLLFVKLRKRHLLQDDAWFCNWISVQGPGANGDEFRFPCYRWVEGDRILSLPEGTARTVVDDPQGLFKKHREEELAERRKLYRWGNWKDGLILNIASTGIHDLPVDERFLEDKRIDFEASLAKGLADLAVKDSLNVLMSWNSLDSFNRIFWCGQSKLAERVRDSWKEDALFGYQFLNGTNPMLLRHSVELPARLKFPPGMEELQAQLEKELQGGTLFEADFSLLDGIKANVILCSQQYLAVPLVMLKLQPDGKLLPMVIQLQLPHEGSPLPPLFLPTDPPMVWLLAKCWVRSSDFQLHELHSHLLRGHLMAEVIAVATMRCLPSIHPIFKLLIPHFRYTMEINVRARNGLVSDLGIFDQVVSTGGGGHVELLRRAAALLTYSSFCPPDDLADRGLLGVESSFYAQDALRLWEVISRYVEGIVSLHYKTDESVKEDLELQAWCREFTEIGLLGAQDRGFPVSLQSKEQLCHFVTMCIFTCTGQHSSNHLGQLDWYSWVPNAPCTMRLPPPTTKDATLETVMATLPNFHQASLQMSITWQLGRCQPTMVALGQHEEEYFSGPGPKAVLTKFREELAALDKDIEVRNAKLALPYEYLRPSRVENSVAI

[2] = tested on: LTB4 production in human whole blood; experiment: Inhibition of LTB4 Production in Blood; format: cell-based; details: 1 h, 20 μM A23187, 60 minutes at 37° C., LTB4 in plasma by ELISA, read-out: protection against LTB4 at an EC50
Procedure, shortened: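 Citrated human whole blood preincubated 15 min at 37 °C with compound (top final 30 μM, 1:3 dilutions, quadruplicate), then stimulated with 20 μM A23187 for 60 min at 37 °C. Plasma LTB4 quantified by ELISA; IC50 from percent inhibition versus vehicle.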

Row | Compound | IC50 [1] | EC50 [2]
1 | Cc1c(C)c2c(c(C)c1O)C1(CCC1)CC(C)(C)S2 [2′,2′,5′,7′,8′-pentamethyl-2′,3′-dihydrospiro[cyclobutane-1,4′-thiochromen]-6′-ol] | < 5 µM | < 10 µM
2 | COC(C)C1=Cc2c(C)c(O)c(C)c(C)c2OC12CCC2 (stereo not drawn) [3-(1-methoxyethyl)-5,7,8-trimethylspiro[chromene-2,1′-cyclobutan]-6-ol] | < 5 µM | < 10 µM
3 | CCONCC1=Cc2c(cc(C)c(O)c2C)OC12CCC2 [3-[(ethoxyamino)methyl]-5,7-dimethylspiro[chromene-2,1′-cyclobutan]-6-ol] | < 5 µM | < 10 µM
4 | CCONC1CC2(CCC2)Sc2c(C)c(C)c(O)c(C)c21 (stereo not drawn) [4′-(ethoxyamino)-5′,7′,8′-trimethyl-3′,4′-dihydrospiro[cyclobutane-1,2′-thiochromen]-6′-ol] | < 5 µM | < 10 µM
5 | CCONC1CC2(CCC2)Sc2cc(C)c(O)c(C)c21 (stereo not drawn) [4′-(ethoxyamino)-5′,7′-dimethyl-3′,4′-dihydrospiro[cyclobutane-1,2′-thiochromen]-6′-ol] | < 5 µM | < 10 µM
6 | CONC1CC2(CCC2)Sc2c(C)c(C)c(O)c(C)c21 (stereo not drawn) [4′-(methoxyamino)-5′,7′,8′-trimethyl-3′,4′-dihydrospiro[cyclobutane-1,2′-thiochromen]-6′-ol] | < 5 µM | < 10 µM
7 | CONC1CC2(CCC2)Sc2cc(C)c(O)c(C)c21 (stereo not drawn) [4′-(methoxyamino)-5′,7′-dimethyl-3′,4′-dihydrospiro[cyclobutane-1,2′-thiochromen]-6′-ol] | < 5 µM | < 10 µM
8 | Cc1c(C)c2c(c(C)c1O)CCC1(CC1)O2 [5,7,8-trimethyl-3,4-dihydrospiro[chromene-2,1′-cyclopropan]-6-ol] | < 5 µM | < 10 µM
9 | Cc1cc2c(c(C)c1O)CCC1(CCC1)O2 [5,7-dimethyl-3,4-dihydrospiro[chromene-2,1′-cyclobutan]-6-ol] | < 5 µM | < 10 µM
10 | Cc1cc2c(c(C)c1O)CC1(CCC1)CO2 [5,7-dimethylspiro[chroman-3,1′-cyclobutan]-6-ol] | < 5 µM | < 10 µM
11 | Cc1cc2c(c(C)c1O)C=CC1(CCC1)O2 [5,7-dimethylspiro[chromene-2,1′-cyclobutan]-6-ol] | < 5 µM | < 10 µM
12 | Cc1c(C)c2c(c(Cl)c1O)CCC1(CCC1)O2 [5-chloro-7,8-dimethyl-3,4-dihydrospiro[chromene-2,1′-cyclobutan]-6-ol] | < 5 µM | –
13 | Cc1c(C)c2c(c(C)c1O)C1(CCC1)CCS2 [5′,7′,8′-trimethyl-2′,3′-dihydrospiro[cyclobutane, 1,4′-thiochromen]-6′-ol] | < 5 µM | –
14 | CCO/N=C/C1=Cc2c(cc(C)c(O)c2C)OC12CCC2 [6-hydroxy-5,7-dimethylspiro[chromene-2,1′-cyclobutane]-3-carbaldehyde O-ethyloxime] | < 5 µM | < 10 µM
15 | CO/N=C1\CC2(CCC2)Sc2c(C)c(C)c(O)c(C)c21 [6′-hydroxy-5′,7′,8′-trimethylspiro[cyclobutane-1,2′-thiochroman]-4′(3′H)-one O-methyloxime] | < 5 µM | < 10 µM
16 | Cc1c(O)cc2c(c1C)OC1(CCC1)CC2 [7,8-dimethyl-3,4-dihydrospiro[chromene-2,1′-cyclobutan]-6-ol] | < 5 µM | < 10 µM
17 | CC(C)(C)c1cc2c(cc1O)CCC1(CCC1)O2 [7-tert-butyl-3,4-dihydrospiro[chromene-2,1′-cyclobutan]-6-ol] | < 5 µM | < 10 µM
18 | Cc1c(O)c(C(C)(C)C)cc2c1CCC1(CCC1)O2 [7-tert-butyl-5-methyl-3,4-dihydrospiro[chromene-2,1′-cyclobutan]-6-ol] | < 5 µM | < 10 µM
19 | CCc1cc2c(c(CC)c1O)CC(CSCC(=O)OC)C1(CCC1)O2 (stereo not drawn) [methyl 2-((5,7-diethyl-6-hydroxyspiro[chroman-2,1′-cyclobutane]-3-yl)methylthio)acetate] | < 5 µM | < 10 µM
